Legend:
[1] = tested on: antigen-positive E3 cell line; settings: read-out: IC50 (cytotoxicities); cited from earlier work
[2] = tested on: hematological tumor cells; experiment: Triosephosphate isomerase vaccination of mice injected with hematological tumor cells; assay type: in vivo; settings: mice vaccinated prior to injection of the tumor cells versus not vaccinated
E3 target cells = settings: cited from earlier work

## O=c1[nH]c(=O)n([C@H]2C[C@H](O)[C@@H](CO)O2)cc1F [FUDR, 5-fluoro-2′-deoxyuridine]
[1]
  IC50: 0.4 nM

## triosephosphate isomerase: purified full length murine triosephosphate isomerase protein used as vaccine antigen, may be administered with an adjuvant
[2]
  tumor size: smaller

## CC(=O)[C@]1(O)Cc2c(O)c3c(c(O)c2[C@@H](O[C@H]2C[C@H](N)[C@H](O)[C@H](C)O2)C1)C(=O)c1ccccc1C3=O [Ida, Idarubicin]
E3 target cells
  IC50: 120 nM

Source: patent US7358042B2, “Triosephosphate isomerase directed diagnostics and therapeutics for multidrug resistant neoplastic disease” (priority 2003, dated 2008)
